Results reported in patent publication US8754220B2, “Quinolizidinone carboxamide M1 receptor positive allosteric modulators” (Merck Sharp & Dohme Corp., priority 2009, dated 2014).
Like-named read-outs stand apart in the source and are kept apart here.

Target: T1, acetylcholine muscarinic M1 receptor (CHOnfat/hM1 cells) (Homo sapiens, UniProt P11229)
T1 construct: expressed in transfected cells; host or cells: CHOnfat (CHO cells; selected with Geneticin)
T1 sequence (P11229 1-460): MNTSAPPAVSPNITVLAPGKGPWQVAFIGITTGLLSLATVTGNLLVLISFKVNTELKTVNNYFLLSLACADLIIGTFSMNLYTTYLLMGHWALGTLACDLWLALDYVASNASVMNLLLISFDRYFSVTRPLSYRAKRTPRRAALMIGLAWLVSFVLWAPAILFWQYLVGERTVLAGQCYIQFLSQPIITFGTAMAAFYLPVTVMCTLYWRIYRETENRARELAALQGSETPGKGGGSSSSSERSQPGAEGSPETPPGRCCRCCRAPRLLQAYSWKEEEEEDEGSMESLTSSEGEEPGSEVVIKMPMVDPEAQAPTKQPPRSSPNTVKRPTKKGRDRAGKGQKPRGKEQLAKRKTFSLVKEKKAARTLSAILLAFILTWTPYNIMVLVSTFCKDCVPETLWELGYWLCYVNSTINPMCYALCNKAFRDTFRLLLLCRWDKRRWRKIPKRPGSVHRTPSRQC
Assay: FLIPR intracellular calcium assay for M1 positive allosteric modulator activity (acetylcholine EC20)
Format: cell-based
Description: The assay studies the effect of one or several concentrations of test compounds on basal or acetylcholine-stimulated Ca^2+ levels using FLIPR.
Compounds are prepared and subjected to a preincubation period of 4 min. Thereafter, a single EC20 concentration of acetylcholine is added to each well (3 nM final). The intracellular Ca^2+ level of each sample is measured and compared to an acetylcholine control to determine any modulatory activity.
Cells: CHOnfat/hM1, hM2, hM3 or hM4 cells are plated 24 hr before the assay at a density of 18,000 cells/well (100 μL) in a 384 well plate. CHOnfat/hM1 and CHOnfat/hM3 Growth Medium: 90% DMEM (Hi Glucose); 10% HI FBS; 2 mM L-glutamine; 0.1 mM NEAA; Pen-Strep; and 1 mg/ml Geneticin, are added. For M2Gqi5CHOnfat and M4Gqi5CHOnfat cells, an additional 600 μg/ml hygromycin is added.
Equipment: 384 well plate, 120 μL addition plate; 96-well Whatman 2 ml Uniplate Incubator, 37° C., 5% CO2; Skatron EMBLA-384 Plate Washer; Multimek Pipetting System; Genesis Freedom 200 System; Mosquito System; Temo Nanoliter Pipetting System; and FLIPR^384 Fluorometric Imaging Plate Reader System are used.
Buffers. Assay Buffer: Hanks Balanced Salt Solution, with 20 mM Hepes, 2.5 mM Probenecid (Sigma P-8761) first dissolved in 1 N NaOH, 1% Bovine Serum Albumin (Sigma A-9647). Dye Loading Buffer: Assay Buffer plus 1% Fetal Bovine Serum and Fluo-4AM/Pluronic Acid Mixture. 2 mM Fluo-4AM ester stock in DMSO (Molecular Probes F-14202) Concentration of 2 μM in buffer for a final concentration of 1 μM in Assay. 20% Pluronic Acid Solution stock, with concentration of 0.04% in Buffer, 0.02% in Assay.
65 μL of 2 mM Fluo-4AM are mixed with 130 μL of 20% Pluronic Acid. The resulting solution and 650 μL FBS is added to the assay buffer for a total volume of 65 mL. Positive Controls: 4-Br-A23187: 10 mM in DMSO; final concentration 10 μM. Acetylcholine: 10 mM in water, working stock at both 20 μM and 30 μM in assay buffer, final concentration of 10 μM. This is used to check the maximum stimulation of the CHOK1/hM1 cells. 20 μM (2×) acetylcholine is added in the preincubation part of the assay, and the 30 μM (3×) stock is added in the second part. (EC20) Acetylcholine: 10 mM in water, working stock of 9 nM (3×), and final concentration in assay is 3 nM. This is used after the preincubation with test compounds. Addition of the EC20 Acetylcholine to each well with a test compound will ascertain any modulator activity. 24 wells contain 3 nM Acetylcholine alone as a control.
Screening Plate: Compounds are titrated in 96-well plates (columns 2-11), 100% DMSO, started at a concentration of 15 mM (150× stock concentration), and 3-fold serial dilutions using Genesis Freedom200 System. Four 96-well plates are combined into a 384-well plate using Mosquito Nanoliter Pipetting System by transferring 1 μl of serial diluted compounds to each well, and 1 mM acetylcholine (100× stock concentration) were added as a control. Using Temo, 49 μl assay buffer is added to each well of the 384-well plate right before assay.
In a 96-well Whatman 2 ml Uniplate, 9 nM Acetylcholine (3×) is pipetted into wells corresponding to the screening compounds, and into control wells. The 30 μM acetylcholine control (3×) is added into control wells, and the 3× agonist plate is transferred into a 384 well plate.
Cells are washed three times with 100 μL of buffer, leaving 30 μL of buffer in each well. Using Multimek, 30 μL of Dye Loading Buffer is added into each well and incubated at 37° C., 5% CO2 for up to one hr.
After 60 min, the cells are washed three times with 100 μL of buffer, leaving 30 μL of buffer in each well. The cell plate, screening plate, and agonist addition plates are placed on the platform in the FLIPR and the door closed. A signal test to check background fluorescence and basal fluorescence signal is performed. Laser intensity is adjusted if necessary. […]

[1] = CHOnfat/hM1 cells, 4 min preincubation, then EC20 acetylcholine (3 nM final), FLIPR Ca2+, read-out: IP Value (inflection point)

| SMILES | EC50 [nM] | EC50 [1] [nM] |
| --- | --- | --- |
| N#CC1(c2cc(CF)ccn2)CCN(Cc2cc(C(=O)N[C@H]3CCCC[C@@H]3O)c(=O)n3ccccc23)CC1 [Example 23, 1-({4-Cyano-4-[4-(fluoromethyl)pyridine-2-yl]piperidin-1-yl}methyl)-N-[(1S,2S)-2-hydroxycyclohexyl]-4-oxo-4H-quinolizine-3-carboxamide] | 34 | – |
| COC(=O)N1CCC(NC(=O)c2cc(CN3CCC(C#N)(c4ccccn4)CC3)c3ccccn3c2=O)CC1 [Example 20, Methyl 4-[({1-[(4-cyano-4-pyridin-2-ylpiperidin-1-yl)methyl]-4-oxo-4H-quinolizin-3-yl}carbonyl)amino]piperidine-1-carboxylate] | – | 600 |
| C[C@H]1COCC[C@@H]1NC(=O)c1cc(CN2CCC(C#N)(c3ccccn3)CC2)c2ccccn2c1=O (racemic) [Example 21, rac-1-[(4-Cyano-4-pyridin-2-ylpiperidin-1-yl)methyl]-N-[(3R,4S)-3-methyltetrahydro-2H-pyran-4-yl]-4-oxo-4H-quinolizine-3-carboxamide] | – | 380 |
| O=C(N[C@H]1CCCC[C@@H]1O)c1cc(CN2CCN(c3ccc(C(F)F)nc3)CC2)c2ccccn2c1=O [Example 5, 1-({4-[6-(Difluoromethyl)pyridine-3-yl]piperazin-1-yl}methyl)-N-[(1S,2S)-2-hydroxycyclohexyl]-4-oxo-4H-quinolizine-3-carboxamide] | – | 210 |
| N#CC1(c2cc(C(F)F)ccn2)CCN(Cc2cc(C(=O)N[C@H]3CCCC[C@@H]3O)c(=O)n3ccccc23)CC1 [Example 24, 1-({4-Cyano-4-[4-(difluoromethyl)pyridin-2-yl]piperidin-1-yl}methyl)-N-[(1S,2S)-2-hydroxycyclohexyl]-4-oxo-4H-quinolizine-3-carboxamide] | 25 | – |
